We go through 13 compounds from patent US11149031B2, “Substituted N-(3-fluoropropyl)-pyrrolidine compounds, processes for their preparation and therapeutic uses thereof” (SANOFI, priority 2016, dated 2021).

One assay deals with ERα in MCF7 cells (Homo sapiens (Human), UniProt P03372). In words: Test C: estrogen receptor degradation activity, ERα in cell western assay in MCF7 cells. The assay is classed as cell-based. The note with it: for DC50: 4 hours post compound addition, ERα in cell western, read-out: Degradation IC50; for % Degradation at 3 μM: 4 hours, relative to fulvestrant. The method, boiled down: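 In-cell western, MCF7, 4 h compound exposure, 3–0.000018 μM final, 9 points, 1:5 steps. Formalin/Triton fix, anti-ER rabbit mAb overnight cold, Alexa 488 secondary plus 2 μM Syto-64. Green intensity = ERα, red = DNA; no-primary wells as background.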

The target in assay [1] is His6-ERα298-554 WT (ERα ligand-binding domain) (Homo sapiens (Human), UniProt P03372). Description: Test A: biochemical antagonist activity, LanthaScreen TR-FRET ERα coactivator assay, WT. The note with it: asterisk (*): protocol using 10 nM estradiol; read-out: Antagonism WT IC50. The method, boiled down:
(§1)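 IC50 values come from a 4-parameter logistic fit of the 520:495 nm TR-FRET ratio after overnight room-temperature incubation. The mix held 0.5 nM ERα 298–554 LBD, Tb-labelled anti-His6 antibody, 250 nM PGC1a peptide and 3 nM or 10 nM estradiol, pH 7.4 phosphate buffer with DTT.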
(In general: TR-FRET usually uses a lanthanide donor and a delayed reading to cut background.)

For assay [2], the system named is MCF7 cells expressing mutant estrogen receptor Asp 538 Gly. Description: Test B: cell proliferation/viability assay (CellTiter-Glo) on MCF7 Asp 538 Gly mutant. As to conditions: Homo sapiens, MCF7, 168 h, MCF7 cells expressing ER Asp 538 Gly mutant, 7 days of compound exposure, read-out: proliferation MCF7 D538G IC50. Format: cell-based. The method, boiled down: (§2)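 CellTiter-Glo luminescence after 7-day exposure; % viability = background-corrected RLU of sample relative to untreated. MCF7 WT or ER Tyr 537 Ser/Asp 538 Gly mutant-dependent lines, phenol red-free MEM, 5% charcoal-stripped FBS; 3-0.000001 μM, 9 points.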
Background: ATP-based viability assays read luminescence as a measure of living cells.

In assay [3] the target is His6-ERα298-554 D538G mutant (ERα ligand-binding domain) (Homo sapiens (Human), UniProt P03372, D538G). In words: Test A: biochemical antagonist activity, LanthaScreen TR-FRET ERα coactivator assay, D538G mutant. As to conditions: asterisk (*): protocol using 10 nM estradiol; read-out: Antagonism D538G IC50. Put shortly:
as §1

Assay [4] deals with MCF7 cells (breast tumor cells) WT. Description: Test B: cell proliferation/viability assay (CellTiter-Glo) on MCF7 WT. The assay is classed as cell-based. As to conditions: Homo sapiens, MCF7, 168 h, 7 days of compound exposure. Put shortly:
as §2

In assay [5] the target is His6-ERα298-554 Y537S mutant (ERα ligand-binding domain) (Homo sapiens (Human), UniProt P03372, Y537S). Description: Test A: biochemical antagonist activity, LanthaScreen TR-FRET ERα coactivator assay, Y537S mutant. The note with it: asterisk (*): protocol using 10 nM estradiol; read-out: Antagonism Y537S IC50. Put shortly: as §1
Assay [6] has as its system MCF7 cells expressing mutant estrogen receptor Tyr 537 Ser. In words: Test B: cell proliferation/viability assay (CellTiter-Glo) on MCF7 Tyr 537 Ser mutant. Format: cell-based. As to conditions: Homo sapiens, MCF7, 168 h, MCF7 cells expressing ER Tyr 537 Ser mutant, 7 days of compound exposure, read-out: proliferation MCF7 Y537S IC50. The method, boiled down:
as §2

Chain of His6-ERα298-554 D538G mutant (ERα ligand-binding domain) (P03372 298-554 D538G): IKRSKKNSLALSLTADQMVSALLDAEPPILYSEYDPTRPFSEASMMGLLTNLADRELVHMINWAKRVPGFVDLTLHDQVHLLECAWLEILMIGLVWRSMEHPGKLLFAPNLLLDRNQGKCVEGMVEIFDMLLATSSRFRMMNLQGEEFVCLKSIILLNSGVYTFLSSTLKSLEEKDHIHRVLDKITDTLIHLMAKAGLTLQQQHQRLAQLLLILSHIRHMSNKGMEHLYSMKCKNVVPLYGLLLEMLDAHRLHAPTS
Chain of His6-ERα298-554 WT (ERα ligand-binding domain) (P03372 298-554): as the sequence (P03372 298-554 D538G) above, with G241D counted along it
Chain of ERα in MCF7 cells (P03372 whole entry): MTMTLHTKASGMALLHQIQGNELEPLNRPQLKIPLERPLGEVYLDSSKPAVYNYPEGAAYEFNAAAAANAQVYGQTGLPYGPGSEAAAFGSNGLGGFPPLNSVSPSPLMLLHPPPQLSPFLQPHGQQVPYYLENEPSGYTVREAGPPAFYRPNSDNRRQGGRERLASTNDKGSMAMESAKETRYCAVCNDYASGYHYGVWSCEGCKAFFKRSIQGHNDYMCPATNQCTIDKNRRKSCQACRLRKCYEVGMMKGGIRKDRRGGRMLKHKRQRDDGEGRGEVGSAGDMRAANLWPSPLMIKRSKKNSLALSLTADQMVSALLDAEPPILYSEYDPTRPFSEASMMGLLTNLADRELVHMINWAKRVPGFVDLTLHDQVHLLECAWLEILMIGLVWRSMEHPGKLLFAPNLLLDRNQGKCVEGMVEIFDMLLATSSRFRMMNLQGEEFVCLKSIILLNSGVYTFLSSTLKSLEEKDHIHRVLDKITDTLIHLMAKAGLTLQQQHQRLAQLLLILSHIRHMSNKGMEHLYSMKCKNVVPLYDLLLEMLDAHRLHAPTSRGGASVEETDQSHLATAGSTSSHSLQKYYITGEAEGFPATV
Chain of His6-ERα298-554 Y537S mutant (ERα ligand-binding domain) (P03372 298-554 Y537S): as the sequence (P03372 298-554 D538G) above, with Y240S, G241D counted along it

`CCOc1ccc(C2=C(c3ccc(O[C@H]4CCN(CCCF)C4)cc3)c3ccc(O)cc3SCC2)c(F)c1Cl` [Example 221, 4-(3-chloro-4-ethoxy-2-fluoro-phenyl)-5-[4-[(3S)-1-(3-fluoropropyl)pyrrolidin-3-yl]oxyphenyl]-2,3-dihydro-1-benzothiepin-8-ol]: the DC50 on ERα in MCF7 cells stood at 0.2 nM. For the same compound, the “% Degradation at 3 μM” value on ERα in MCF7 cells is listed as 84%. Further, the IC50 in assay [1] turned out to be 11 nM; in assay [2], 0.6 nM; in assay [3] it was 265 nM; in assay [4], 0.5 nM; in assay [5], 133 nM; in assay [6], 8 nM.

Consider `Oc1ccc2c(c1)SCCC(c1ccc(SC(F)(F)F)cc1)=C2c1ccc(O[C@H]2CCN(CCCF)C2)cc1` [Example 222, 5-[4-[(3S)-1-(3-fluoropropyl)pyrrolidin-3-yl]oxyphenyl]-4-[4-(trifluoromethylsulfanyl)phenyl]-2,3-dihydro-1-benzothiepin-8-ol], for which, at ERα in MCF7 cells, the DC50 was 1 nM. Further, the “% Degradation at 3 μM” value at ERα in MCF7 cells is recorded as 80%. Besides, the IC50 in assay [1] is 18 nM; in assay [2], 0.4 nM; in assay [3], 371 nM; in assay [4], 4 nM; in assay [5], 238 nM; in assay [6], 1 nM.

With `Nc1ccc(C2=C(c3ccc(O[C@H]4CCN(CCCF)C4)cc3)c3ccc(O)cc3SCC2)c(F)n1` [Example 223, 4-(6-amino-2-fluoro-3-pyridyl)-5-[4-[(3S)-1-(3-fluoropropyl)pyrrolidin-3-yl]oxyphenyl]-2,3-dihydro-1-benzothiepin-8-ol], the DC50 on ERα in MCF7 cells amounted to 0.2 nM. Further, the “% Degradation at 3 μM” value at ERα in MCF7 cells was determined as 85%. Moreover, the IC50 in assay [1] came out at 2 nM; in assay [2] it was 0.2 nM; in assay [3], 42 nM; in assay [4], 1 nM; in assay [5] it was 24 nM; in assay [6], 0.1 nM.

As to `CCN(CC)c1ccc(C2=C(c3ccc(O[C@H]4CCN(CCCF)C4)cc3)c3ccc(O)cc3SCC2)c(F)c1` [Example 224, 4-[4-(diethylamino)-2-fluoro-phenyl]-5-[4-[(3S)-1-(3-fluoropropyl)pyrrolidin-3-yl]oxyphenyl]-2,3-dihydro-1-benzothiepin-8-ol], on ERα in MCF7 cells, the DC50 stood at 3 nM. The “% Degradation at 3 μM” value at ERα in MCF7 cells was 85%. Also, the IC50 in assay [1] was found to be 71 nM; in assay [2], 8 nM; in assay [3], 1480 nM; in assay [4], 3 nM; in assay [5], 1030 nM; in assay [6], 83 nM.

Consider `[O-][S+]1CCC(c2ccc(OC(F)(F)F)cc2)=C(c2ccc(O[C@H]3CCN(CCCF)C3)cc2)c2ccc(O)cc21` (stereo partly drawn) [Example 225, 5-[4-[(3S)-1-(3-fluoropropyl)pyrrolidin-3-yl]oxyphenyl]-1-oxo-4-[4-(trifluoromethoxy)phenyl]-2,3-dihydro-benzothiepin-8-ol], for which the DC50 at ERα in MCF7 cells was 6 nM. Moreover, the “% Degradation at 3 μM” value at ERα in MCF7 cells is listed as 82%. Moreover, the IC50 in assay [1] was 750 nM; in assay [2] it was 36 nM; in assay [3], > 4000 nM; in assay [4], 18 nM; in assay [5], > 4000 nM; in assay [6], 249 nM.

Take `Cc1ccc(C2=C(c3ccc(O[C@H]4CCN(CCCF)C4)nc3)c3ccc(O)cc3CCC2)c(F)c1` [Example 237, 6-(2-fluoro-4-methyl-phenyl)-5-[6-[(3S)-1-(3-fluoropropyl)pyrrolidin-3-yl]oxy-3-pyridyl]-8,9-dihydro-7H-benzo[7]annulen-2-ol]: at ERα in MCF7 cells, the DC50 is 0.2 nM. Besides, at ERα in MCF7 cells, the “% Degradation at 3 μM” value came to 92%. The IC50 in assay [1] was 0.6 nM; in assay [2], 0.7 nM; in assay [3], 7 nM; in assay [4], 0.3 nM; in assay [5] it was 5 nM; in assay [6], 5 nM.

In the case of `Oc1ccc2c(c1)CCCC(c1ccc(Cl)cc1Cl)=C2c1cnc(O[C@H]2CCN(CCCF)C2)nc1` [Example 238, 6-(2,4-dichlorophenyl)-5-[2-[(3S)-1-(3-fluoropropyl)pyrrolidin-3-yl]oxypyrimidin-5-yl]-8,9-dihydro-7H-benzo[7]annulen-2-ol], on ERα in MCF7 cells, the DC50 was determined as 0.5 nM. Moreover, on ERα in MCF7 cells, the “% Degradation at 3 μM” value was 87%. The IC50 in assay [1] was found to be 3 nM; in assay [2], 0.5 nM; in assay [3] it was 59 nM; in assay [4], 0.3 nM; in assay [5] it was 33 nM; in assay [6] it was 3 nM.

In the case of `Oc1ccc2c(c1)CCCC(c1ccc(Cl)cc1Cl)=C2c1ccc(O[C@H]2CCN(CCCF)C2)nc1` [Example 239, 6-(2,4-dichlorophenyl)-5-[6-[(3S)-1-(3-fluoropropyl)pyrrolidin-3-yl]oxy-3-pyridyl]-8,9-dihydro-7H-benzo[7]annulen-2-ol], the DC50 on ERα in MCF7 cells was determined as 0.6 nM. For the same compound, the “% Degradation at 3 μM” value on ERα in MCF7 cells was determined as 87%. Further, the IC50 in assay [1] was found to be 13 nM; in assay [2], 1 nM; in assay [3], 13 nM; in assay [4] it was 0.3 nM; in assay [5], 9 nM; in assay [6], 3 nM.

As for `CCOc1ccc(C2=C(c3ccc(O[C@H]4CCN(CCCF)C4)nc3)c3ccc(O)cc3CCC2)c(F)n1` [Example 240, 6-(6-ethoxy-2-fluoro-3-pyridyl)-5-[6-[(3S)-1-(3-fluoropropyl)pyrrolidin-3-yl]oxy-3-pyridyl]-8,9-dihydro-7H-benzo[7]annulen-2-ol], the DC50 at ERα in MCF7 cells is 0.3 nM. The “% Degradation at 3 μM” value at ERα in MCF7 cells was 89%. The IC50 in assay [1] worked out at 6 nM; in assay [2], 0.5 nM; in assay [3], 6 nM; in assay [4], 0.3 nM; in assay [5], 4 nM; in assay [6], 3 nM.

For `Oc1ccc2c(c1)CCCC(c1ccc(OC(F)F)c(F)c1)=C2c1ccc(O[C@H]2CCN(CCCF)C2)nc1` [Example 241, 6-[4-(difluoromethoxy)-3-fluoro-phenyl]-5-[6-[(3S)-1-(3-fluoropropyl)pyrrolidin-3-yl]oxy-3-pyridyl]-8,9-dihydro-7H-benzo[7]annulen-2-ol], the DC50 at ERα in MCF7 cells was 0.2 nM. Also, the “% Degradation at 3 μM” value on ERα in MCF7 cells was found to be 85%. The IC50 came to 1 nM in assay [1]; 0.2 nM in assay [2]; 27 nM in assay [3]; 0.1 nM in assay [4]; 16 nM in assay [5]; 2 nM in assay [6].

Take `CC1(C)Cc2cc(C3=C(c4ccc(O[C@H]5CCN(CCCF)C5)nc4)c4ccc(O)cc4CCC3)ccc2N1` [Example 242, 6-(2,2-dimethylindolin-5-yl)-5-[6-[(3S)-1-(3-fluoropropyl)pyrrolidin-3-yl]oxy-3-pyridyl]-8,9-dihydro-7H-benzo[7]annulen-2-ol]: on ERα in MCF7 cells, the DC50 was found to be 0.8 nM. At ERα in MCF7 cells, the “% Degradation at 3 μM” value is 83%. Moreover, the IC50 in assay [1] is 1 nM; in assay [2] it was 2 nM; in assay [3], 9 nM; in assay [4], 0.7 nM; in assay [5], 7 nM; in assay [6], 11 nM.

Consider `Oc1ccc2c(c1)CCCC(c1ccc(Cl)c(F)c1)=C2c1cnc(O[C@H]2CCN(CCCF)C2)cn1` [Example 243, 6-(4-chloro-3-fluoro-phenyl)-5-[5-[(3S)-1-(3-fluoropropyl)pyrrolidin-3-yl]oxypyrazin-2-yl]-8,9-dihydro-7H-benzo[7]annulen-2-ol], for which, at ERα in MCF7 cells, the DC50 turned out to be 0.3 nM. Also, at ERα in MCF7 cells, the “% Degradation at 3 μM” value stood at 91%. In addition, the IC50 in assay [1] came to 12 nM; in assay [2], 0.5 nM; in assay [3] it was 386 nM; in assay [4] it was 0.2 nM; in assay [5], 179 nM; in assay [6], 3 nM.

For the compound `Cc1ccc(C2=C(c3cnc(O[C@H]4CCN(CCCF)C4)nc3)c3ccc(O)cc3CCC2)c(F)c1` [Example 244, 6-(2-fluoro-4-methyl-phenyl)-5-[2-[(3S)-1-(3-fluoropropyl)pyrrolidin-3-yl]oxypyrimidin-5-yl]-8,9-dihydro-7H-benzo[7]annulen-2-ol], on ERα in MCF7 cells, the DC50 worked out at 0.4 nM. The “% Degradation at 3 μM” value at ERα in MCF7 cells was determined as 92%. Also, the IC50 in assay [1] was 3 nM; in assay [2] it was 2 nM; in assay [3], 67 nM; in assay [4] it was 0.9 nM; in assay [5] it was 34 nM; in assay [6], 6 nM.
